Tests used:
[1] = tested on: lettuce plants (Lactuca sativa L.) var. Sant'Anna; test: Application of the iodine formulation by foliar application (foliar spray), iodine content by optical emission spectrometry; type: in vivo; conditions: foliar spray at transplantation and after 7 days, 30 μg iodine/plant, harvested after 15 days, lettuce aerial part
Description: (§1) The seeds of the selected species were germinated within germination trays filled with a growth substrate composed by vernalized black peat and blond sphagnum peat (Agrofino Professional) and placed in a growth chamber.
(§2) The germinated seedlings were grown until the 2nd real leaf stage. Later, the growth substrate portion wherein the roots were confined was extracted and a gentle washing was carried out in order to remove the whole substrate and thus obtain a free root seedling ready to be placed in hydroponics, for the test of root application. The plants were transplanted in 0.35 L pots for the foliar application test.
The plants were grown for 15 days in 0.35 L pots, containing universal topsoil based on vernalized black peat and blond sphagnum, in controlled conditions in a growth chamber: • 07.00-12.00: T 24° C., RH (Relative humidity) 60%, Light Int. 300 μmol/m^2/s; • 12.00-16.00: T 25° C., RH 60%, Light Int. 400 μmol/m^2/s; • 16.00-20.00: T 24° C., RH r 60%, Light Int. 300 μmol/m^2/s; • 20.00-07.00: T 23° C., RH 60%, Light Int. 0 μmol/m^2/s.
The formulations (iodine salts and formulation object of the invention) were applied during transplantation and after 7 days, by foliar spray, delivering 5 ml of applicative solution according to Example 1 to each plant. In both treatments, the applied iodine amount was the same: 30 μg/plant. […]

[2] = tested on: lettuce plants (Lactuca sativa L.) var. Sant'Anna; test: Application of the iodine formulation by root application (hydroponic nutritive solution), iodine content by optical emission spectrometry; type: in vivo; conditions: 36 μg I/L of nutritive solution, harvested after 15 days, lettuce aerial part
Description: as §1, §2
The plants were grown in recipients containing 5 L of nutritive solution added with iodine salts obtained according to Example 1, or with the nutritive solution added with the formulation object of the patent. In both treatments, the applied iodine amount was the same: 36 μg I/L of nutritive solution. The plants were then grown in controlled conditions in a growth chamber: • 07.00-12.00: T 24° C., RH 60%, Light Int. 300 μmol/m^2/s; • 12.00-16.00: T 25° C., RH 60%, Light Int. 400 μmol/m^2/s; • 16.00-20.00: T 24° C., RH 60%, Light Int. 300 μmol/m^2/s; • 20.00-07.00: T 23° C., RH 60%, Light Int. 0 μmol/m^2/s.
After 15 days the plants were harvested and the aerial part was weighted. Each plant was washed with deionized water and dried in oven at 105° C. overnight. […]

[I-].[K+] [KI salt, potassium iodide]
iodine absorption efficiency [1]: 40% | iodine content in the food [1]: 36 μg/100 g fresh weight | iodine absorption efficiency [2]: 46% | iodine content in the food [2]: 55 μg/100 g fresh weight

Reference: patent US20260157378A1, “PROCESS FOR THE PREPARATION OF COMPOSITIONS BASED ON AMINO ACIDS AND PEPTIDES OF ANIMAL ORIGIN AND IODINE, COMPOSITIONS THUS OBTAINED AND USE THEREOF” (SICIT GROUP S.P.A., priority 2022, published 2026)
